For data set [1], the system named is colitis-associated colorectal cancer (CA-CRC). In words: AOM/DSS colorectal cancer model, preventive administration. It is filed as in vivo, C57BL/6 mice. The settings on record: 10 mg/kg oral, 7th to 20th days (prevention). As to the method: AOM (Sigma Aldrich, Cat No. A5486) was diluted with physiological saline so as to be a concentration of 10 mg/kg, and then administered intraperitoneally to C57BL/6 mice (8 weeks old, female, 18±2 g) by […] for a total of 3 times at an interval of 7 days (Experiment day 0, 7, 14th). On the 7th day of the experiment, a 1.5% DSS solution prepared by dissolving 1.5% DSS in sterile distilled water was given for drinking to the mice for 7 days. Further, the 1.5% DSS solution was changed at an interval of 2 days. Sterile distilled water was provided for drinking from the 8th day of the experiment. In the compound 6 administration group according to an embodiment of the present invention, 10 mg/kg of Compound 6 per mouse was completely dissolved in an ethanol-Cremophor EL mixture corresponding to 7.5% (v/v) of the administered dose, and then, was diluted in phosphate buffered saline to prepare the final ethanol:Cremophor EL:phosphate buffered saline (0.375:0.375:9.25, v/v/v), followed by oral administration with 200 μl of the prepared solution. In order to confirm the preventive effect, Compound 6 was administered for a total of 14 times from the 7th to the 20th days of the experiment.

In data set [2] the test system is graft-versus-host disease. In words: Graft-versus-host disease model (B6->BDF1). The settings on record: 10 mg/kg oral daily, 3rd to 14th days. It is filed as in vivo, BDF1 mice. As for the experimental part: The spleen of C57BL/6 mice (8 to 12 weeks old, female, 18±3 g) was excised, pulverized by adding RPMI medium, and then passed through a 40 μm cell strainer (BD Falcon), thereby obtaining a single cell suspension. The single cell suspension was centrifuged (1200 rpm, 5 minutes), and after discarding the supematant, 1 ml of ACK (ammonium chloride/potassium bicarbonate) lysis buffer (0.15 M NH4Cl, 1 mM KHCO3, 0.1 mM Na2 EDTA) was added, followed by stirring for 1 minute and then washing the same with RPMI medium. After centrifugation, the cell suspension was reacted on mouse CD90.2 microbeads (Miltenyi Biotec, Cat No. 130-121-278) at 4° C. for 20 minutes. After complementation of the reaction, the cell suspension was centrifuged, washed with 10 ml of autoMACS® Running Buffer (Miltenyi Biotec, Cat No. 130-091-221), and then resuspended with 3 ml of autoMACS® Running Buffer. Then, CD90.2^+ T cells were obtained from the cell suspension using Auto MACS pro (Miltenyi Biotec) (positive selection). […]
The graft-versus-host disease severity index was evaluated at an interval of 3 to 4 days by visual observation in a severity index system that was classified into a total of 10 points with 0 to 2 points for each item of weight reduction, hair condition, posture, activity and skin change.

Data set [3] deals with experimental autoimmune encephalomyelitis (EAE). The experiment in a line: Experimental autoimmune encephalomyelitis (EAE) model of multiple sclerosis. It is filed as in vivo, C57BL/6 mice. The settings on record: 10 mg/kg oral daily, 15th to 20th days; 21st day; 0-5 stages; solvent control 2.9±1.92. As to the method:
On day 0 of the experiment, myelin oligodendrocyte glycoprotein (MOG) 35-55 peptide (MOG35-55, Peptron) (200 μg), heat killed Mmycobacterium tuberculosis, Difco, Cat No. 231141) (500 μg), and an adjuvant (incomplete freund's adjuvant, Sigma Aldrich, Cat No. F5506) were mixed for 7 minutes to form an emulsion. MOG35-55 emulsion was subcutaneously injected into both flanks of C57BL/6 mice (7-8 weeks old, female), respectively, and then 100 μl of pertussis toxin (Sigma Aldrich, Cat No. P2980) (200 ng) was administered into the tail vein. On the 2nd day of the experiment, an equal amount of pertussis toxin was administered intravenously. […]
In the compound 6 administration group according to an embodiment of the present invention, 10 mg/kg of Compound 6 per mouse was completely dissolved in an ethanol-Cremophor EL mixture corresponding to 7.5% (v/v) of the administered dose, and then, was diluted in phosphate buffered saline to prepare the final ethanol:Cremophor EL:phosphate buffered saline (0.375:0.375:9.25, v/v/v), followed by oral administration with 200 μl of the prepared solution daily for a total of 6 times from the 15th to 20th days of the experiment. The multiple sclerosis index was visually observed and recorded in the severity index system classified into 0-5 stages. […]

In data set [4] the target is CYP2C19 (Homo sapiens, UniProt P33261). The experiment in a line: CYP isoenzyme activity. Particulars: 10 μM. It counts as in vitro ADME.
CYP2C19, sequence (P33261 whole entry): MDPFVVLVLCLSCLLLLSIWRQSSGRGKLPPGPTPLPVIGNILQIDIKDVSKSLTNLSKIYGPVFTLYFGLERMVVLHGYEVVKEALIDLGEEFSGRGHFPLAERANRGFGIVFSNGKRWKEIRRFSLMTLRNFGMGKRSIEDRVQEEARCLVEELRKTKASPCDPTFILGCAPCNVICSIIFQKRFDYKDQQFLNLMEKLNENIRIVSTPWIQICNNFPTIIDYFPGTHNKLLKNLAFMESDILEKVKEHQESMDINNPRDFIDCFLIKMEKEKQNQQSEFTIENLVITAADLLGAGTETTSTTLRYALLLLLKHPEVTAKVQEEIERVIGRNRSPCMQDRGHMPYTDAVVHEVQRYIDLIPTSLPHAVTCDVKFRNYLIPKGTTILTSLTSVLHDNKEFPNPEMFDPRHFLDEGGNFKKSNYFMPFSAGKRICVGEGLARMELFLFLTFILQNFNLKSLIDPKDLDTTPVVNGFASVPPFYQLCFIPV

For the compound `O=C(Cc1c[nH]c2ccc(Cl)cc12)Nc1nc2ccc(N3CCOCC3)cc2s1` [Compound 6, 2-(5-chloro-1H-indol-3-yl)-N-(6-morpholinobenzo[d]thiazol-2-yl)acetamide], the body weight result in data set [1] (after 70 days) is “increase in the body weight similar to that of normal mice”. For the same compound, in data set [1] (vs control), the number of tumors entry is recorded as “significantly smaller” and the size of tumors entry was “significantly smaller”. Also, the “colon tissue inflammatory pathology index” value in data set [2] is recorded as “significantly decreased”. Moreover, in data set [2] (total of 10 points, solvent control 8±1), the “severity index of graft-versus-host disease” value was 2.2±1.2. For the same compound, the “disease severity index (EAE)” value in data set [3] is recorded as 0.92±0.58. Moreover, in data set [4], the CYP2C19 activity was 93.1 % of Control Activity and the “inhibition of the enzyme activity of CYP2C19” value was “little effect”.

(Values after patent US12187717B2, “Compound and use thereof in treating autoimmune diseases” (PARENCHYMA BIOTECH INC., priority 2022, dated 2025).)
